In experiment [1] the target is T1, Androgen receptor (Homo sapiens, UniProt P10275).
T1 construct: Dmax: a maximum degradation degree of AR in VCaP cells; endogenous in cells; host or cells: VCaP cells
T1 sequence (P10275 1-920): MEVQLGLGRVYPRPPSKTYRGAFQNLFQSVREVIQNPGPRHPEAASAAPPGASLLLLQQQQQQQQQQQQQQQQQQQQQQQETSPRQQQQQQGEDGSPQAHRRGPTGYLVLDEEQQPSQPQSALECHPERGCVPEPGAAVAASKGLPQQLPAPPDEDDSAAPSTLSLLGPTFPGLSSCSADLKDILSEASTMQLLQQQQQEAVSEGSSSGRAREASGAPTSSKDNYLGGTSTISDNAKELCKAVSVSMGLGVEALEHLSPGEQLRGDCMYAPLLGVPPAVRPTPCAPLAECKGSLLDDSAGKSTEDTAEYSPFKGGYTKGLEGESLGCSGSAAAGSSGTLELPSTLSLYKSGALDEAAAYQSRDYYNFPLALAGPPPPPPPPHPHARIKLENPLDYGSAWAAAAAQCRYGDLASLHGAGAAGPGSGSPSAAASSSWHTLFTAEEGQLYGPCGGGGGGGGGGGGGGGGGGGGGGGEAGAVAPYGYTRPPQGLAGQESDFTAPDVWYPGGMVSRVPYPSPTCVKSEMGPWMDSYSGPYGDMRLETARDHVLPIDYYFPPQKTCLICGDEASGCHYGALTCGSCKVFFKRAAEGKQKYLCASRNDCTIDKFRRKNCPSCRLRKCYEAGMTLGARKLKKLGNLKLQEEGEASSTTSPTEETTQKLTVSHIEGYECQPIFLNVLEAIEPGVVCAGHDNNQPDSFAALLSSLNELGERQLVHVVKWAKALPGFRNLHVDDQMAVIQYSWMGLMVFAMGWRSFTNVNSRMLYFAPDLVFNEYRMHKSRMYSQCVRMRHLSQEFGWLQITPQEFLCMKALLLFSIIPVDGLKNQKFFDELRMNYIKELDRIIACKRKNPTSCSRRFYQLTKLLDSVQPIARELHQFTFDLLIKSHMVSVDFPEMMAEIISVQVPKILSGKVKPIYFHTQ
In words: Androgen receptor In-Cell-Western assay (AR degradation in VCaP cells). The class given is cell-based. As to conditions: 24 hours treatment; for DC50: concentration for half the maximum degradation degree of AR in VCaP cells; for Dmax: maximum degradation degree of AR in VCaP cells. As to the method: This assay evaluated compound performance in VCap cells. An intracellular androgen receptor was assayed by In-Cell-Western according to the assay procedure described below.
In a 96-well cell culture plate (Corning 3599) pretreated by poly-D-Lysin, Vcap cells were seeded to a Vcap cell assay medium [phenol red containing DMEM (Gibco Cat. No.: 11995065); fetal bovine serum FBS (Gibco Cat. No.: 10099141C)] at a volume of 100 μL/well and a cell density of 50,000 cells/well. Cells were cultured for at least two days. • 1. First, cells were treated with a compound. The compound was subjected to a gradient dilution by using DMSO and a cell culture medium, so that DMSO contained in the cell culture plate was diluted to 0.5%: a polypropylene plate was used according to the following protocol: • (1) (i) A 200× stock solution plate was prepared in DMSO; (ii) a 10 mM stock solution was diluted at 1:4 (10 μL stock solution+40 μL DMSO=2000 uM) with DMSO to enter row 2; (iii) a 1:4 (10 μL protac+40 μL DMSO) gradient dilution was performed from row 2 to row 9, row 1 was reserved for a 2000 uM reference compound and row 10 was reserved for DMSO. (iv) There were 8 concentrations (the final concentrations on the 200× plate was 2000 uM, 400 uM, 80 uM, etc.) in total. (2) (i) A 3× stock solution was prepared in the medium; (ii) 3 μL of the 200× stock solution was transferred to 197 μL of the medium (by a 12-channel pipette, from row 1 to row 10), i.e. a 3× stock solution plate. (iii) Uniform mixing was performed for the stock solution plate. (3) (i) The medium of Vcap cells was replaced with a fresh medium, with the medium volume of 100 μL. (ii) The uniformly-mixed 3× stock solution was transferred to the cell culture plate (by the 12-channel pipette, 50 μL of the stock solution was transferred from row 1 to row 10). (iii) The cells were cultured for 24 hours. • 2. The expression level of the intracellular androgen receptor after compound treatment was detected, and assay was performed according to the following method. • (1) (i) An equal volume of 8% paraformaldehyde was added to the cell culture plate for cell fixation. A fixative solution in the cell plate was discarded, and the cell plate was washed three times with PBS. (ii) A Triton solution was prepared (the stock solution was diluted at 1:1000). The solution in the cell plate was discarded, and a volume of 200 μL of a Triton diluent was added to each well. (iii) A 2× blocking solution was prepared (a 10× blocking stock solution was diluted at 1:4). The solution in the cell plate was discarded, and a volume of 100 μL of the 2× blocking solution was added to each well. (iv) A primary antibody solution (Androgen receptor Rabbit mAb, Cell Signaling Technology Cat. No.: 5153; 1:1000 dilution) was prepared. The solution in the cell plate was discarded, a volume of 100 μL of a primary antibody diluent was added to each well, and incubation was performed at 4 degrees overnight. (v) The primary antibody solution was discarded, and the cell plate was washed with 1× Wash buffer (Wash buffer in the present application means a washing buffer solution). (vi) A secondary antibody solution (Goat anti Rabbit IgG (H+L) Secondary Antibody, HRP, Thermo Cat. No.: 31460; 1:5000 dilution) was prepared, and a volume of 100 μL of a secondary antibody diluent was added to each well for incubation. (vii) The secondary antibody solution in the cell plate was discarded, and the cell plate was washed with 1× Wash buffer. (viii) A TMB chromogenic solution (BD Cat. No.: 550534) was prepared, and a volume of 100 μL of the chromogenic solution was added to each well. (ix) A volume of 50 μL of a stop solution (BD Cat. No.: 550534) was added to each well. (x) Absorption values at OD 450 nm and 570 nm were read by EnVision. (2) (i) Normalized analysis was performed for the number of cells in each well. The solution in the cell plate was discarded, and the cell plate was washed three times with wash buffer. […]

Experiment [2] deals with VCaP cells. In words: Inhibitory effect on VCaP cell proliferation (Cell Titer Glo). Type of experiment: cell-based. As to conditions: Homo sapiens, 144 h; for IC50: VCaP cells, 5% FBS and 0.1 nM R1881, 6 days; for Emax: maximum degree of VCaP cell proliferation inhibition, 6 days. The protocol: A tumor cell line Vcap (ATCC Cat. No. CRL-2876) was respectively cultured with DMEM (Gibco Cat. No. 11965-092) medium containing 10% FBS (Gibco Cat. No. 10099-141C). During testing, Vcap cells were replaced with a DMEM culture fluid containing 5% FBS and 0.1 nM R1881 (Sigma Cat. No. R0908). The assay method was as follows:
Vcap cells were seeded to a 384-well plate (Perkin Elmer Cat. No. 6007460) at a cell density of 1200 cells/well and a volume of 20 μL/well; after the cells were incubated overnight in a carbon dioxide incubator (Thermo), the prepared compound solutions with different concentrations were added at a volume of 5 μL/well; meanwhile, a corresponding solvent was provided as a control; after the cells were continuously incubated in the incubator for 6 days, the cell plate and the contents thereof were equilibrated to room temperature; 25 μL of a Cell Titer Glor (Promega Cat. No. G7573) reagent was added to each well; after vibration and uniform mixing, incubation in the dark was performed for 10-30 minutes, and a signal value was detected with Envision microplate reader (PerkinElmer).
A percentage inhibition rate of compound-treated wells was calculated through solvent control wells on the plate, GraphPad prism was used to fit the percentage inhibition rate data corresponding to different concentrations, and IC50 value was calculated by a 4-parameter nonlinear logistic formula.
Emax: a maximum degree of VCaP cell proliferation inhibition. IC50: a compound concentration required to achieve half the maximum degree of VCaP cell proliferation inhibition.
On the technique in general: Cellular ATP, detected with luciferase, serves as a proxy for viable cell number.

The record followed here is patent US12234223B2, “Phthalazinone compound, and preparation method therefor and medical use thereof” (SHANGHAI JEMINCARE PHARMACEUTICALS CO., LTD, priority 2020, dated 2025).

As usually defined, the DC50 is the concentration at which degradation of the target reaches its halfway point. A higher DC50 goes with degradation only at high concentration. As usually defined, the Dmax is the greatest extent of degradation seen. What is called IC50 is the concentration that inhibits the measured activity by half. The low end stands for inhibition by little substance, the high end for a need for much substance.

Regarding `CC1(C)[C@H](NC(=O)c2ccc(N3CCC(CN4CCN(c5ccc6c(=O)n(C7CCC(=O)NC7=O)ncc6c5)CC4)C3)cc2)C(C)(C)[C@H]1Oc1ccc(C#N)c(Cl)c1` (stereo partly drawn) [Compound 16], in experiment [1], the DC50 stood at 5.7 nM and the Dmax stood at 92%.

Turning to `CC1(C)[C@H](NC(=O)c2ccc(N3CCC(CN4CCN(c5ccc6c(=O)n(C7CCC(=O)NC7=O)ncc6c5)CC4)CC3)nc2)C(C)(C)[C@H]1Oc1ccc(C#N)c(Cl)c1` (stereo partly drawn) [Compound 4], in experiment [1], the DC50 came to 6.8 nM and the Dmax worked out at 98%. For the same compound, in experiment [2], the IC50 was determined as 33 nM and the Emax is 69%.

`CC1(C)[C@H](NC(=O)c2cnc(N3CCC(CN4CCN(c5ccc6c(=O)n(C7CCC(=O)NC7=O)ncc6c5)CC4)CC3)cn2)C(C)(C)[C@H]1Oc1ccc(C#N)c(Cl)c1` (stereo partly drawn) [Compound 10]: in experiment [1], the DC50 is 35 nM and the Dmax is 87%.

For `CC1(C)C(NC(=O)c2ccc(N3CCC(CN4CCN(c5ccc6c(=O)n(C7CCC(=O)NC7=O)ncc6c5)CC4)CC3)nn2)C(C)(C)C1Oc1ccc(C#N)c(Cl)c1` (stereo not drawn) [Compound 8], in experiment [1], the DC50 is 8.9 nM and the Dmax amounted to 75%.

Consider `CC1(C)[C@H](NC(=O)c2ccc(N3CCC(CN4CCN(c5ccc6cnn(C7CCC(=O)NC7=O)c(=O)c6c5)CC4)CC3)cc2)C(C)(C)[C@H]1Oc1ccc(C#N)c(Cl)c1` (stereo partly drawn) [Compound 11], for which, in experiment [1], the DC50 amounted to 38 nM and the Dmax was determined as 80%.

`CC1(C)[C@H](NC(=O)c2ccc(N3CCC(CN4CCN(c5ccc6c(=O)n([C@@H]7CCC(=O)NC7=O)ncc6c5)CC4)CC3)cc2)C(C)(C)[C@H]1Oc1ccc(C#N)c(Cl)c1` [Compound 28B]: in experiment [1], the half-maximal degradation concentration (DC50) is 7.2 nM and the Dmax worked out at 101%. In experiment [2], the midpoint of inhibition, the IC50, lay at 33 nM and the Emax was 71%.

With `CC1(C)[C@H](NC(=O)c2cnc(N3CCC(CN4CCN(c5ccc6c(=O)n(C7CCC(=O)NC7=O)ncc6c5)CC4)CC3)c(F)c2)C(C)(C)[C@H]1Oc1ccc(C#N)c(Cl)c1` (stereo partly drawn) [Compound 26], in experiment [1], it took 32 nM to reach half-maximal degradation (DC50) and the Dmax stood at 109%. Besides, in experiment [2], it took 45 nM to reach half-maximal inhibition (IC50) and the Emax turned out to be 60%.

For `CC1(C)[C@H](NC(=O)c2ccc(N3CCC(CN4CCN(c5ccc6c(=O)n(C7CCC(=O)NC7=O)nc(C(F)(F)F)c6c5)CC4)CC3)cc2)C(C)(C)[C@H]1Oc1ccc(C#N)c(Cl)c1` (stereo partly drawn) [Compound 32], in experiment [1], the DC50 worked out at 5.2 nM and the Dmax was 145%.

Turning to `N#Cc1ccc(O[C@H]2CC[C@H](NC(=O)c3cnc(N4CCC(CN5CCN(c6ccc7c(=O)n(C8CCC(=O)NC8=O)ncc7c6)CC5)CC4)nc3)CC2)cc1Cl` (stereo partly drawn) [Compound 14], in experiment [1], half-maximal degradation (DC50) was put at 11 nM and the Dmax was 91%. In experiment [2], this compound displayed an IC50 of 20 nM and an Emax of 61%.

Regarding `Cc1cc(O[C@H]2C(C)(C)[C@H](NC(=O)c3ccc(N4CCC(CN5CCN(c6ccc7c(=O)n(C8CCC(=O)NC8=O)ncc7c6)CC5)CC4)cc3)C2(C)C)ccc1C#N` (stereo partly drawn) [Compound 7], in experiment [1], the DC50 was determined as 15 nM and the Dmax amounted to 92%.

In experiment [2], `CC1(C)[C@H](NC(=O)c2ccc(N3CC(CN4CCN(c5ccc6c(=O)n(C7CCC(=O)NC7=O)ncc6c5)CC4)C3)cc2)C(C)(C)[C@H]1Oc1ccc(C#N)c(Cl)c1` (stereo partly drawn) [Compound 20] gave an IC50 of 42 nM and an Emax of 60%.

On to `CC1(C)[C@H](NC(=O)c2cnc(N3CCC(CN4CCN(c5ccc6c(=O)n(C7CCC(=O)NC7=O)ncc6c5)CC4)CC3)nc2)C(C)(C)[C@H]1Oc1ccc(C#N)c(Cl)c1` (stereo partly drawn) [Compound 2], for which, in experiment [1], half-maximal degradation (DC50) was put at 5.3 nM and the Dmax came to 114%. Further, in experiment [2], the IC50 amounted to 11 nM and the Emax is 60%.

Consider `N#Cc1ccc(O[C@H]2CC[C@H](NC(=O)c3ccc(N4CCC(CN5CCN(c6ccc7c(=O)n(C8CCC(=O)NC8=O)ncc7c6)CC5)CC4)cc3)CC2)cc1Cl` (stereo partly drawn) [Compound 13], for which, in experiment [1], the DC50 is 9.6 nM and the Dmax was 94%.

In the case of `N#Cc1ccc(O[C@H]2CC[C@H](NC(=O)c3ccc(N4CC(CN5CCN(c6ccc7c(=O)n(C8CCC(=O)NC8=O)ncc7c6)CC5)C4)cc3)CC2)cc1Cl` (stereo partly drawn) [Compound 15], in experiment [1], the half-maximal degradation concentration (DC50) was determined as 16 nM and the Dmax was 84%.

Consider `CC1(C)[C@H](NC(=O)c2ccc(N3CCC(CN4CC5CC4CN5c4ccc5c(=O)n(C6CCC(=O)NC6=O)ncc5c4)CC3)cc2)C(C)(C)[C@H]1Oc1ccc(C#N)c(Cl)c1` (stereo partly drawn) [Compound 17], for which, in experiment [1], the DC50 stood at 6.9 nM and the Dmax came out at 88%.

Consider `CC1(C)[C@H](NC(=O)c2ccc(N3CCC(CN4CCN(c5ccc6c(=O)n(C7CCC(=O)NC7=O)ncc6c5)CC4)CC3)cc2)C(C)(C)[C@H]1Oc1ccc(C#N)c(C(F)(F)F)c1` (stereo partly drawn) [Compound 3], for which, in experiment [1], half-maximal degradation (DC50) was put at 12 nM and the Dmax stood at 104%.
